Assay results as given in patent publication US6608086B2, “Dihydropyridines and new uses thereof” (Synaptic Pharmaceutical Corporation, priority 1993, dated 2003).
Counter-ions that a name gives are not always drawn. Like-named read-outs stand apart in the source and are kept apart here.

Assays:
α2B receptor = molecular target: T1, α2B receptor (Homo sapiens, UniProt P18089); experiment: Competition binding, [3H]rauwolscine, human α2B receptor; details: [3H]rauwolscine
T1 construct: host or cells: LM(tk-) cells, line L-NGC-α2B
T1 sequence (P18089 1-450): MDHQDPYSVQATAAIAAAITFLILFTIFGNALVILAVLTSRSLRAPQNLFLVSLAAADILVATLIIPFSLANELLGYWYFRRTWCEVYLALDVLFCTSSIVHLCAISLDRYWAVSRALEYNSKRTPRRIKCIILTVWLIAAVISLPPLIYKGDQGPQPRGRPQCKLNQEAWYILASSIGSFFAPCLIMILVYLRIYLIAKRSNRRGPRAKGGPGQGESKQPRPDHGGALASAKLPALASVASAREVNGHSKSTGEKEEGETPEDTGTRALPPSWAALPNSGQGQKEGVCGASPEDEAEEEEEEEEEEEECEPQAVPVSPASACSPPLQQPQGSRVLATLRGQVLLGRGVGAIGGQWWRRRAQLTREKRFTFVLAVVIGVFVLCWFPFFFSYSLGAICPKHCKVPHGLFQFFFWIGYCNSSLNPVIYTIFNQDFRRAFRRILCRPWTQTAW
Excerpt: (§1) The protocols for these experiments are given below.
(§2) α2 Human Adrenergic Receptors:
(§3) To determine the potency of […], antagonists at the α2 receptors, LM(tk−) cell lines stably transfected with the genes encoding the α2A, α2B, and α2C receptors were used. The cell line expressing the α2A receptor is designated L-α2A, and was deposited on Nov. […] The cell line expressing the α2B receptor is designated L-NGC-α2B, and was deposited on Oct. […] The cell line expressing the α2C receptor is designated L-α2C, and was deposited on Nov. […] Cell lysates were prepared as described above (see Radioligand Binding Assays), and suspended in 25 mM glycylglycine buffer (pH 7.6 at room temperature). Equilibrium competition binding assay were performed using [3H]rauwolscine (0.5 nM), and nonspecific binding was determined by incubation with 10 μM phentolamine. The bound radioligand was separated by filtration through GF/B filters using a cell harvester.

L-type calcium channel = molecular target: T2, L-type calcium channel (Rattus norvegicus, UniProt P22002); experiment: Competition binding of [3H]nitrendipine to membrane fragments of rat cardiac muscle; details: [3H]nitrendipine
T2 construct: membrane fragments of rat cardiac muscle; from tissue; host or cells: rat cardiac muscle membranes
T2 sequence (P22002 whole entry, other chains not shown, the tested form may be a part): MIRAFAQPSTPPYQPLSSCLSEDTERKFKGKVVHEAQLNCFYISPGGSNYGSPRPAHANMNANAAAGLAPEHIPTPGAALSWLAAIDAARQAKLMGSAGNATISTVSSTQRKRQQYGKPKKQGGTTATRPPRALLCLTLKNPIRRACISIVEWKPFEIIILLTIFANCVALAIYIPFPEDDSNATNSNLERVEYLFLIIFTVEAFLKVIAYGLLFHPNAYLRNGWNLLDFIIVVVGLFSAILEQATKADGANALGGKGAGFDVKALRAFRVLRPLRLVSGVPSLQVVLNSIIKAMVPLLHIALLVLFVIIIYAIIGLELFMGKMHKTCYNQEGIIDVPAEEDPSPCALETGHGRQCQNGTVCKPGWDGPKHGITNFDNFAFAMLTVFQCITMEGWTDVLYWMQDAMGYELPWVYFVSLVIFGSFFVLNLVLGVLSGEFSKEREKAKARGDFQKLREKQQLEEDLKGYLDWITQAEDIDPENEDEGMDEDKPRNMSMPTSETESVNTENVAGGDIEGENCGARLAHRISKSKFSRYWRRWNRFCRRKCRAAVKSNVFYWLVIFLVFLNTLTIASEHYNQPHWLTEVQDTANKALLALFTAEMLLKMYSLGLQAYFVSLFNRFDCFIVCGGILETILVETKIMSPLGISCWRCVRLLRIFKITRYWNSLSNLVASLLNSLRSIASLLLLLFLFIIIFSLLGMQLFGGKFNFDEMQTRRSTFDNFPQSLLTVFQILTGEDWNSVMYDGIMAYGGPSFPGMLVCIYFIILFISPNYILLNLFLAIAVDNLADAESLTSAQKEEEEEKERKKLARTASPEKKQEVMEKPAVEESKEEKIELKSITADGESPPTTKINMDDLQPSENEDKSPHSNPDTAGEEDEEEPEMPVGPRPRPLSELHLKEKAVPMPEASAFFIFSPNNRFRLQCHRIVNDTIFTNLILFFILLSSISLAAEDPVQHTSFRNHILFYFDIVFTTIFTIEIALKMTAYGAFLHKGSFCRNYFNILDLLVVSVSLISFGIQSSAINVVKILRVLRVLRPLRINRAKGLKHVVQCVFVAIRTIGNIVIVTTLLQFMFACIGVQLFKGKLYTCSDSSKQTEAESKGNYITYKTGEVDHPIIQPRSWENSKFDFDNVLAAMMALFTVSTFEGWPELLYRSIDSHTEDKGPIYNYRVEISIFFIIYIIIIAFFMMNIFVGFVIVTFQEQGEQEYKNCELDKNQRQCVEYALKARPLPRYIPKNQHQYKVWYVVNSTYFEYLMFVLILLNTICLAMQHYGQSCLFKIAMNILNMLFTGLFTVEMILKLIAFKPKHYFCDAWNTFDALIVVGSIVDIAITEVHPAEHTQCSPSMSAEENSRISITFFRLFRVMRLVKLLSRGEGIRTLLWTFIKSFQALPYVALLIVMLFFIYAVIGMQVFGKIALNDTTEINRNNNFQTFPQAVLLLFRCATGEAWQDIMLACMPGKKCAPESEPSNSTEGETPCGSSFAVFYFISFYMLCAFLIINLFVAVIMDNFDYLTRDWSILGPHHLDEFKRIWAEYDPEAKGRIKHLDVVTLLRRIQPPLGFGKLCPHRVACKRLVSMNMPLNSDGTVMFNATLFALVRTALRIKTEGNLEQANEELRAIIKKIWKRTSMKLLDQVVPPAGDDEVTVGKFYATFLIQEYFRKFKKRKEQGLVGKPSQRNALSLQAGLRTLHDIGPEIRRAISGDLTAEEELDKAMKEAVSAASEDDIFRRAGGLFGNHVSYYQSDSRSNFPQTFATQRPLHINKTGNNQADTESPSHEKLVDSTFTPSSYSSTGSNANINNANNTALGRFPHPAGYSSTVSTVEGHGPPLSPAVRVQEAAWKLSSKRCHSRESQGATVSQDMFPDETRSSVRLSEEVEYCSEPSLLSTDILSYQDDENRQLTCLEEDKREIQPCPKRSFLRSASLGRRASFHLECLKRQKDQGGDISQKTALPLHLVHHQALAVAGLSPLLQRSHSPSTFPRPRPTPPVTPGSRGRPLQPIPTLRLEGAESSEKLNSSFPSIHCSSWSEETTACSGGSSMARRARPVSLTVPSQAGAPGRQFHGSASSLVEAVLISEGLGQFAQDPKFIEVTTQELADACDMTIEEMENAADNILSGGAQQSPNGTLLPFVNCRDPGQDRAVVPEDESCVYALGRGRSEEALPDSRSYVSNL
T2 sequence (P54290 25-944 partner limits assumed, other chains not shown): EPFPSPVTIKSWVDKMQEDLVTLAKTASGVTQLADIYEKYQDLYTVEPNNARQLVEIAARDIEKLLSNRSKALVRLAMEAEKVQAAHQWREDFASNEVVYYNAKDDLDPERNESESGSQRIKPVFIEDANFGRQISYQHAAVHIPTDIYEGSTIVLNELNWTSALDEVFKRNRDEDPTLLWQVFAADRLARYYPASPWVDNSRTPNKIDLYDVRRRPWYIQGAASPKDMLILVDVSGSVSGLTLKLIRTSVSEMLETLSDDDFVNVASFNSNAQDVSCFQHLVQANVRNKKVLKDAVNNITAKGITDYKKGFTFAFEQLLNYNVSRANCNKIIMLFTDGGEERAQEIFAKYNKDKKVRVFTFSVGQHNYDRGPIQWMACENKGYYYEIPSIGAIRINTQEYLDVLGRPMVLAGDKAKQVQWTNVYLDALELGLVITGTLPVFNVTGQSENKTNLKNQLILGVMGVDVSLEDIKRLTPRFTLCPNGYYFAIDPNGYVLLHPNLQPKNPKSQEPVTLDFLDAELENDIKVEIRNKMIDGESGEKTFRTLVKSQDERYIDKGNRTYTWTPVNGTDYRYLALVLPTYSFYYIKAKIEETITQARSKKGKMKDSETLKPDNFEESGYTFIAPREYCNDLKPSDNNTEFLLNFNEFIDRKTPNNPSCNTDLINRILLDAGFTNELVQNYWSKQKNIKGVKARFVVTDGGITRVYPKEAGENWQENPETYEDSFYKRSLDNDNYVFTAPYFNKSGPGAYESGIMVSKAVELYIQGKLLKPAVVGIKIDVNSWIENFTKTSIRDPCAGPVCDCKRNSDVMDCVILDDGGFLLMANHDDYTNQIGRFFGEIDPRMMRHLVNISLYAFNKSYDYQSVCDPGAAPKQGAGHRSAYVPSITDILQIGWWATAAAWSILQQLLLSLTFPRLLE
T2 sequence (P54290 945-1091 partner limits assumed, other chains not shown): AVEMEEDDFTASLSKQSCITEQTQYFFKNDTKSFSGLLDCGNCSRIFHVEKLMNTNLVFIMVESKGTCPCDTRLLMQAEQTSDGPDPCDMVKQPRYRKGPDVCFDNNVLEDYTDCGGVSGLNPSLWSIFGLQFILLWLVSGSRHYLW

[1] = molecular target: T3, α1A Human Adrenergic Receptor (Homo sapiens, UniProt P25100); experiment: Radioligand binding, [3H]prazosin, cloned human α1A adrenergic receptor
T3 construct: The entire coding region of α1A (1719 bp); expressed in transfected cells
T3 sequence (P25100 1-572): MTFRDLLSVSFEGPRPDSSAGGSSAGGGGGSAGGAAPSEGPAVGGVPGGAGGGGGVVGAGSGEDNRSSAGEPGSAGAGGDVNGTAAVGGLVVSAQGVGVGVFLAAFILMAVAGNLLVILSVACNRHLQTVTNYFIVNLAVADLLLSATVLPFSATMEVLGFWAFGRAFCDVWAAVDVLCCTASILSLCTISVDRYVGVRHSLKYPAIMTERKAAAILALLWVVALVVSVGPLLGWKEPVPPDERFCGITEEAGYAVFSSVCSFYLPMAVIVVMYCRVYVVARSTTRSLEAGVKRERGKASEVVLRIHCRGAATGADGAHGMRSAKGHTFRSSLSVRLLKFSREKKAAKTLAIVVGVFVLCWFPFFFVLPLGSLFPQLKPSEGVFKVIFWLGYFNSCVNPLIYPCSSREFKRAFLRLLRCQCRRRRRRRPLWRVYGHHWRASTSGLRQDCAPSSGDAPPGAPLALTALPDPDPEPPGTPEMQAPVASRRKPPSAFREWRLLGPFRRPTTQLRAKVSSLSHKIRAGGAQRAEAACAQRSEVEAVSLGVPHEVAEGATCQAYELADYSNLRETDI
In short: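 Competition binding used membrane preparations of transfected LM(tk−) cells and the α1 antagonist [3H]prazosin at 0.5 nM, incubated 20 min at 37° C in Tris-HCl buffer, pH 7.5.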

α2C receptor = molecular target: T4, α2C receptor (Homo sapiens, UniProt P18825); experiment: Competition binding, [3H]rauwolscine, human α2C receptor; details: [3H]rauwolscine
T4 construct: host or cells: LM(tk-) cells, line L-α2C
T4 sequence (P18825 1-462): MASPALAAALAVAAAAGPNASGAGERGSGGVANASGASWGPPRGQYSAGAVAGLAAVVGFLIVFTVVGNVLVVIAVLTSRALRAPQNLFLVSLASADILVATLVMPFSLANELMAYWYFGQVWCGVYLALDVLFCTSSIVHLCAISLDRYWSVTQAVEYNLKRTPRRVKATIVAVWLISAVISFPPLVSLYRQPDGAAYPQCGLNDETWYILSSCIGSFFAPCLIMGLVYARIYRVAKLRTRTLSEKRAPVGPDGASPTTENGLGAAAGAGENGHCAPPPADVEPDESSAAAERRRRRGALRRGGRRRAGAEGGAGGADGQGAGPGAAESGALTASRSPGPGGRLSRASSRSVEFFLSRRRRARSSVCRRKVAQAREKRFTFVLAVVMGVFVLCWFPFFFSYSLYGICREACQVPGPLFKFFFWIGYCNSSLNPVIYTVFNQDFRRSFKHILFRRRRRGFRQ
Excerpt: as §1, §2, §3

α2A receptor = molecular target: T5, α2A receptor (Homo sapiens, UniProt P08913); experiment: Competition binding, [3H]rauwolscine, human α2A receptor; details: [3H]rauwolscine
T5 construct: host or cells: LM(tk-) cells, line L-α2A
T5 sequence (P08913 1-465): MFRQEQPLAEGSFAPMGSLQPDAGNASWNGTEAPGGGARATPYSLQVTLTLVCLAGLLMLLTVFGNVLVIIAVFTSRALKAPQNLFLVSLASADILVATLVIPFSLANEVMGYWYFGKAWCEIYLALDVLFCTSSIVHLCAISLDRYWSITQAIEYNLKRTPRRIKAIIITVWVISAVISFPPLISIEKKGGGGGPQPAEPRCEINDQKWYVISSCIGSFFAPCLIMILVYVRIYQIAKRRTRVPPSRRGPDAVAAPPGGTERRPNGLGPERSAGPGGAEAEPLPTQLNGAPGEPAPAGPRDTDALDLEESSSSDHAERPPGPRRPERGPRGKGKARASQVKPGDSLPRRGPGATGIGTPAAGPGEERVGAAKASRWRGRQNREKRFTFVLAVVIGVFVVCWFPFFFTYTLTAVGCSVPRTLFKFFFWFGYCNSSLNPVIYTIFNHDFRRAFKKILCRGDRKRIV
Excerpt: as §1, §2, §3

[2] = molecular target: T6, α1B Human Adrenergic Receptor (Homo sapiens, UniProt P35368); experiment: Radioligand binding, [3H]prazosin, cloned human α1B adrenergic receptor; details: pKi alpha-1 1b, cloned human α1B receptor, LM(tk−) cell membranes
T6 construct: The entire coding region of α1B (1563 bp); expressed in transfected cells
T6 sequence (P35368 1-520): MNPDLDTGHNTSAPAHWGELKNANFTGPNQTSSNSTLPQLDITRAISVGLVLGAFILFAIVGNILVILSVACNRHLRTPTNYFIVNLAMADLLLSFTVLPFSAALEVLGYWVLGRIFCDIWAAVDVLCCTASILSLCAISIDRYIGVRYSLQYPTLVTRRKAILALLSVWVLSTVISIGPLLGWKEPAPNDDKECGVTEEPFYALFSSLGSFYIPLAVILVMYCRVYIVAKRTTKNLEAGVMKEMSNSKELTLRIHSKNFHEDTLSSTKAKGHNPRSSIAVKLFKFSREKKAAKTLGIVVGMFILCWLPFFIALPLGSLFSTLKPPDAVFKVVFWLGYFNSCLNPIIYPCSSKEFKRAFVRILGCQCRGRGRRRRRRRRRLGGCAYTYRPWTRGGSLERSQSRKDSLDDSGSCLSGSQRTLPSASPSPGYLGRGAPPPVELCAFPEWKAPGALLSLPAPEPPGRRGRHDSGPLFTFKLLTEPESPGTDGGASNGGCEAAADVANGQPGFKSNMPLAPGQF
In short: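 Membranes from stably transfected LM(tk−) cells, resuspended in 50 mM Tris-HCl, 1 mM MgCl2, 0.1% ascorbic acid, pH 7.5, were incubated with 0.5 nM [3H]prazosin for 20 min at 37° C. Nonspecific binding defined with 10 μM phentolamine; bound ligand separated by GF/B filtration.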

[3] = molecular target: T7, α1C Human Adrenergic Receptor (Homo sapiens, UniProt P35348); experiment: Radioligand binding, [3H]prazosin, cloned human α1C adrenergic receptor; details: pKi alpha-1 1c, cloned human α1C receptor, LM(tk−) cell membranes
T7 construct: The entire coding region of α1C (1401 bp); expressed in transfected cells
T7 sequence (P35348 1-466): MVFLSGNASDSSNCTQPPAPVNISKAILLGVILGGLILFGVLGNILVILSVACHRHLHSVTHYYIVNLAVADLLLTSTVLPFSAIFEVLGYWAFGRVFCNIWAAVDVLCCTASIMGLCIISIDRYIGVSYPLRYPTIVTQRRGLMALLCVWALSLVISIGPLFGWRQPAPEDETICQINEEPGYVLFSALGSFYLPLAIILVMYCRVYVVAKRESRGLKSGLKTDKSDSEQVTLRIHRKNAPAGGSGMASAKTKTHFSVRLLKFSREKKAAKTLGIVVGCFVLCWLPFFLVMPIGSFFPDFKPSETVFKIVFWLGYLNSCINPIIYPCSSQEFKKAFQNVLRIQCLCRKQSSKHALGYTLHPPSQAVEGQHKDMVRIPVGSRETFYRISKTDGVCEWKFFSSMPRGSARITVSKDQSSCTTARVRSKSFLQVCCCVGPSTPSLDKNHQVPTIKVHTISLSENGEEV
In short: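 Read-out is filter-retained [3H]prazosin (0.5 nM) bound to membranes of LM(tk−) cells stably carrying the human α1C receptor. Incubation ran 20 min at 37° C. at pH 7.5, with 10 μM phentolamine marking nonspecific binding.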

[4] = LM(tk-) cell line L-NGC-α2B, SEM and n in lines below
[5] = rat cardiac muscle membranes, SEM and n in lines below, read-out: pKi Ca (converted)
[6] = human receptor, LM(tk-) cell lysates, mean, read-out: PKi alpha-2 2c (converted)
[7] = rat cardiac muscle membranes, mean, read-out: PKi Ca (converted)
[8] = human receptor, LM(tk-) cell lysates, mean, read-out: PKi alpha-2 2a (converted)

CC1=C(C(N)=O)C(c2ccc([N+](=O)[O-])cc2)C(C(=O)NCCCN2CCC(c3ccccc3)(c3ccccc3)CC2)=C(C)N1 (racemic) [(±)-2]
pKi alpha-2 2b (α2B receptor; [4]): 6.38
Ki (L-type calcium channel; [5]): 200 µM
pKi alpha-1 1a [1]: 6.22

CC1=C(C(N)=O)C(c2ccc([N+](=O)[O-])cc2)C(C(=O)NCCCN2CCC(c3ccccc3)(c3ccccc3)CC2)=C(C)N1 (single isomer, unassigned; (+)) [(+)-2]
pKi alpha-2 2b (α2B receptor; [4]): 6.40
pKi Ca (L-type calcium channel; rat cardiac muscle membranes, SEM and n in lines below): 4.11
pKi alpha-1 1a ([1]; [3H]prazosin, cloned human receptor in LM(tk-) cell membranes, SEM and n in lines below): 6.40

CC1=C(C(N)=O)C(c2ccc([N+](=O)[O-])cc2)C(C(=O)NCCCN2CCC(c3ccccc3)(c3ccccc3)CC2)=C(C)N1 (single isomer, unassigned; (-)) [(−)-2]
pKi alpha-2 2b (α2B receptor; [4]): 6.56
Ki (L-type calcium channel; [5]): 1820 µM
pKi alpha-1 1a [1]: 6.46

COC(=O)C1(c2ccccc2)CCN(CCCNC(=O)C2=C(C)NC(C)=C(C(N)=O)C2c2ccc([N+](=O)[O-])cc2)CC1 (stereo not drawn) [Example 198, 5-Carboxamido-1,4-dihydro-2,6-dimethyl-3-{N-[3-(4-methoxycarbonyl-4-phenylpiperidin-1-yl)propyl]}carboxamido-4-(4-nitrophenyl)pyridine]
Ki (α2C receptor; [6]): 2.45 µM
Ki (α2B receptor; human receptor, LM(tk-) cell lysates, mean, read-out: PKi alpha-2 2b (converted)): 1.07 µM
Ki (L-type calcium channel; [7]): 178 µM
Ki (α2A receptor; [8]): 1.12 µM
melting point: 120 to 121 °C

CNC(=O)C1=C(C)NC(C)=C(C(=O)NCCCN2CCC(c3ccccc3)CC2)C1c1ccc([N+](=O)[O-])cc1 (stereo not drawn) [Example 56, 1,4-Dihydro-2,6-dimethyl-5-(N-methyl) carboxamido-4-(4-nitrophenyl)-3-{N-[3-(4-phenylpiperidin-1-yl)propyl]}carboxamidopyridine hydrochloride hemihydrate]
Ki (α2C receptor; LM(tk-) cell line L-α2C, SEM and n in lines below, read-out: pKi alpha-2 2c (converted)): 0.186 µM
Ki (α2B receptor; LM(tk-) cell line L-NGC-α2B, SEM and n in lines below, read-out: pKi alpha-2 2b (converted)): 0.129 µM
Ki (L-type calcium channel; [5]): 6.46 µM
Ki (α2A receptor; LM(tk-) cell line L-α2A, SEM and n in lines below, read-out: pKi alpha-2 2a (converted)): 0.269 µM

CCC1=C(C(=O)NCCCN2CCC(c3ccccc3)(c3ccccc3)CC2)C(c2ccc([N+](=O)[O-])cc2)C(C(=O)NC(C)C)=C(CC)N1 (stereo not drawn) [Example 132]
Ki [2]: 0.389 µM
Ki (L-type calcium channel; rat cardiac muscle membrane fragments, L-type calcium channel, read-out: pKi Ca (converted)): 79.4 µM
Ki [3]: 0.0575 µM
Ki ([1]; pKi alpha-1 1a, [3H]prazosin, cloned human α1A receptor, LM(tk−) cell membranes): 0.776 µM
melting point: 201 °C (dec.)

COC(=O)C1(c2ccccc2)CCN(CCCNC(=O)C2=C(C)NC(C)=C(C(C)=O)C2c2ccc([N+](=O)[O-])cc2)CC1 (stereo not drawn) [Example 201, 5-Acetyl-1,4-dihydro-2,6-dimethyl-3-{N-[3-(4-methoxycarbonyl-4-phenylpiperidin-1-yl)propyl]}carboxamido-4-(4-nitrophenyl)pyridine]
Ki (α2C receptor; [6]): 3.24 µM
Ki (L-type calcium channel; [7]): 67.6 µM
Ki (α2A receptor; [8]): 4.47 µM
melting point: 94 to 95 °C
